Like-named read-outs stand apart in the source and are kept apart here. Square brackets hold non-standard residues; d marks the D form. Peptide text beside a SMILES is read from it. * marks the point of attachment. d2Thi = N[C@H](Cc1cccs1)C(=O)O; Tos = Cc1ccc(S(=O)(=O)*)cc1; dΔPro = O=C(O)[C@H]1C=CCN1; Abu = CC[C@H](N)C(=O)O; Bn = c1ccc(C*)cc1; Ms = CS(=O)(=O)*
Tests used:
Format in all cases: biochemical
cathepsin B = biological target: T1, cathepsin B (Homo sapiens, UniProt P07858); experiment: Inhibition of cathepsin B; conditions: for IC50: read-out: Cat B IC50; for inhibition at 1 µM: read-out: Cat B % I @ 1 uM
T1 construct: purchased Calbiochem 219364
Method: (§1) Additionally,the order of reagents added to the plate was altered because both enzymes are constitutively active. Following inhibitor addition to the plates, appropriate 2× concentrated stock dilutions of the enzyme preparations were made in assay buffer and 100 μl added to each well. The assay was initiated by addition of 100 μl of 2× concentrated stock dilution of substrate in assay buffer.

cathepsin L = biological target: T2, cathepsin L (Homo sapiens, UniProt P07711); experiment: Inhibition of cathepsin L; conditions: for inhibition at 1 µM: Table III, read-out: Cat L % I @ 1 uM
T2 construct: purchased Calbiochem 219402
Method: as §1

thrombin = biological target: T3, thrombin (Homo sapiens, UniProt P00734); experiment: Inhibition of thrombin; conditions: 10 uM, read-out: Thrombin % I @ 10 uM
T3 construct: purchased Sigma Chem. Co. T-7009

[1] = biological target: T4, Recombinant human calpain I (Homo sapiens, UniProt P07384); experiment: Inhibition of calpain I activity
T4 construct: made in house
T4 sequence (P07384 1-714): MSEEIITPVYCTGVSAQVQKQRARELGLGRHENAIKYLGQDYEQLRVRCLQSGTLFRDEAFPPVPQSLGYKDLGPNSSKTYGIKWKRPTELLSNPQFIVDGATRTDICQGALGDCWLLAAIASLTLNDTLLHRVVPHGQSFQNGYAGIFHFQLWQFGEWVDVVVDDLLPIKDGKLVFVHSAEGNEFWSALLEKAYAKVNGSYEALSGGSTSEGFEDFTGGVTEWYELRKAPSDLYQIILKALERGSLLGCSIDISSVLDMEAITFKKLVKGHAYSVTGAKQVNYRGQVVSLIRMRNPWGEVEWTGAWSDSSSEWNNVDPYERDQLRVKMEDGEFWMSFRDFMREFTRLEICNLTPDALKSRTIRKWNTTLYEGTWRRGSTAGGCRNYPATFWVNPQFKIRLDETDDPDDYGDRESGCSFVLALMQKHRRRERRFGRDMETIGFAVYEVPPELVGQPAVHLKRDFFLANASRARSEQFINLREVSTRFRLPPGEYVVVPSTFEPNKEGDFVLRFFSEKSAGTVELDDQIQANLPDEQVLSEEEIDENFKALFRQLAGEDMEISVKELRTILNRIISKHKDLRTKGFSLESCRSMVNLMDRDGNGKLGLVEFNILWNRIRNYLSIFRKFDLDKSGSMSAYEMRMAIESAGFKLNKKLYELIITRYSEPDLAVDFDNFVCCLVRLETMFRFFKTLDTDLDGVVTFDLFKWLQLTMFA
Method: To evaluate inhibitory activity, stock solutions (40 times concentrated) of exemplary compounds of the invention were prepared in 100% anhydrous DMSO and 5 μL of each inhibitor preparation were aliquoted into each of three wells of a 96-well plate. Recombinant human calpain I, prepared by the method of Meyer et al. (Biochem. […] To start the reaction, 20 μL of 50 mM CaCl2 in assay buffer was added to all wells of the plate, excepting three, which were used as background signal baseline controls. Substrate hydrolysis was monitored every 5 minutes for a total of 30 minutes. […] Inhibition of calpain I activity was calculated as the percent decrease in the rate of substrate hydrolysis in the presence of inhibitor (VI) relative to the rate in its absence (VO). Comparison between VO and VI was made within the linear range for substrate hydrolysis. For screening, compounds were tested at 10, 1.0, and 0.1 μM. […] The results were plotted as % inhibition versus log inhibitor concentration and the IC50 was calculated from linear regression of the data. Apparent second order rate constants were determined from analysis of reaction progress curves under pseudo-first order conditions. Each determination represents the means of three or more independent single cuvette analyses continually monitored via a Perkin-Elmer LS50B spectrofluorimeter. The rate of inhibition of hydrolysis was obtained by fitting the curve to the exponential equation (1): […]

α-chymotrypsin = biological target: T5, α-chymotrypsin (Bos taurus, UniProt P00766); experiment: Inhibition of α-chymotrypsin; conditions: read-out: Chymotrypsin % I @ 10 uM
T5 construct: purchased Sigma Chem. Co. C-3142
Method: Additionally, because α-chymotrypsin is not a calcium sensitive enzyme and is constitutively active, following addition of inhibitor stocks to the 96 well plates, 100 μl of a 2-fold concentrated stock of enzyme in dilution buffer was first added and the reaction started by addition of 100 μl of a 2-fold concentrated stock of substrate in assay buffer. Substrate hydrolysis was monitored every 5 minutes up to 30 minutes using a Fluoroskan II ([…]).

T2 sequence (P07711 114-288 limits assumed): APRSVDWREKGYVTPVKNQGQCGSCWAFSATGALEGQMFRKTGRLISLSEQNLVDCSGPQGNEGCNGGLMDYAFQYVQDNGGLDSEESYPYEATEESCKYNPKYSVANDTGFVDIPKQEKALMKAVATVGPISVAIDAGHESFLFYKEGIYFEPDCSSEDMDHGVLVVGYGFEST
T2 sequence (P07711 292-333 limits assumed): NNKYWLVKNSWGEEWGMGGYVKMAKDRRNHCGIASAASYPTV

Row | Compound | IC50 (cathepsin B; Table II) | IC50 (cathepsin L; Table II, read-out: Cat L IC50) | inhibition at 10 µM (thrombin; Table II) | IC50 ([1]; Table II) | inhibition at 10 µM (α-chymotrypsin; Table II, 10 uM) | inhibition at 1 µM (cathepsin B; Table III) | IC50 (cathepsin B; Table III) | inhibition at 1 µM (cathepsin L) | inhibition at 10 µM (thrombin; Table III) | IC50 ([1]; Table III) | inhibition at 0.1 µM ([1]; Table III) | inhibition at 10 µM (α-chymotrypsin; Table III, 10 uM) | inhibition at 10 µM (α-chymotrypsin)
1 | CS(=O)(=O)N[C@H](CC(=O)N1CCc2ccccc2C1)C(=O)N[C@H](C=O)Cc1ccccc1 [Compound 14, 2-THIQ-C(=O)CH2 CH(NHS(=O)2 CH3)C(=O)-Phe--H] | 145 nM | 56 nM | 0% | 20 nM | 11% | – | – | – | – | – | – | – | –
2 | CS(=O)(=O)N[C@H](Cc1ccc(OCc2ccccc2)cc1)C(=O)N[C@H](C=O)Cc1ccccc1 [Compound 89] (Ms-[dY](Bn)-Phe-aldehyde) | – | – | – | – | – | 100% | – | 97% | 0% | 15 nM | 82% | 4% | –
3 | CCS(=O)(=O)N[C@H](COCc1ccccc1)C(=O)N[C@H](C=O)Cc1ccccc1 [Compound 50] | – | – | – | – | – | 99% | – | 98% | 9% | 12 nM | 95% | – | 15%
4 | Cc1ccc(S(=O)(=O)N[C@H](Cc2ccccc2)C(=O)N[C@H](C=O)Cc2ccccc2)cc1 [Compound 61] (Tos-[dF]-Phe-aldehyde) | – | – | – | – | – | 100% | – | 100% | 0% | 22 nM | 83% | 0% | –
5 | O=C[C@H](Cc1ccccc1)NC(=O)[C@@H](COCc1ccccc1)NC(=O)c1ccccc1 [Compound 44] | – | – | – | – | – | 62% | – | 100% | 7% | 280 nM | 29% | 0% | –
6 | CN([C@H](COCc1ccccc1)C(=O)N[C@H](C=O)Cc1ccccc1)S(C)(=O)=O [Compound 83] | – | – | – | – | – | 62% | – | 53% | 7% | 520 nM | 37% | 0% | –
7 | O=C[C@H](Cc1ccccc1)NC(=O)[C@@H](COCc1ccccc1)NS(=O)(=O)c1ccc2ccccc2c1 [Compound 52] | – | – | – | – | – | 100% | 4 nM | 100% | 10% | 28 nM | 93% | 0% | –
8 | CS(=O)(=O)N[C@H](Cc1c[nH]c2ccccc12)C(=O)N[C@H](C=O)Cc1ccccc1 [Compound 77] (Ms-[dW]-Phe-aldehyde) | – | – | – | – | – | 90% | – | 93% | 0% | 14 nM | 91% | 0% | –
9 | CC[C@@H](C=O)NC(=O)[C@@H](COCc1ccccc1)NS(C)(=O)=O [Compound 41] (Ms-[dS](Bn)-[Abu]-aldehyde) | – | – | – | – | – | 42% | – | 100% | 2% | 50 nM | 67% | 0% | –
10 | CCS(=O)(=O)N[C@H](Cc1ccccc1)C(=O)N[C@H](C=O)Cc1ccccc1 [Compound 60] | – | – | – | – | – | 97% | – | 100% | 0% | 33 nM | 74% | 0% | –
11 | O=C[C@H](Cc1ccccc1)NC(=O)[C@@H](Cc1ccccc1)NS(=O)(=O)c1ccc2ccccc2c1 [Compound 72] | – | – | – | – | – | 100% | – | 100% | 13% | 14 nM | 91% | 7% | –

Further lines, with some results ahead:

Row | IC50 (cathepsin B; Table II) | IC50 (cathepsin L; Table II, read-out: Cat L IC50) | inhibition at 10 µM (thrombin; Table II) | IC50 ([1]; Table II) | inhibition at 10 µM (α-chymotrypsin; Table II, 10 uM) | inhibition at 1 µM (cathepsin B; Table III) | IC50 (cathepsin B; Table III) | inhibition at 1 µM (cathepsin L) | inhibition at 10 µM (thrombin; Table III) | IC50 ([1]; Table III) | inhibition at 0.1 µM ([1]; Table III) | inhibition at 10 µM (α-chymotrypsin; Table III, 10 uM) | Compound | inhibition at 10 µM (α-chymotrypsin)
12 | – | – | – | – | – | 97% | 31 nM | 100% | 0% | 15 nM | 96% | 0% | CS(=O)(=O)N[C@H](Cc1cccs1)C(=O)N[C@H](C=O)Cc1ccccc1 [Compound 100] (Ms-[d2Thi]-Phe-aldehyde) | –
13 | – | – | – | – | – | 89% | – | 100% | 4% | 37 nM | 79% | 25% | CS(=O)(=O)N[C@H](C(=O)N[C@H](C=O)Cc1ccccc1)c1cccs1 [Compound 97] | –
14 | – | – | – | – | – | 95% | – | 100% | 0% | – | 21% | 0% | CS(=O)(=O)N[C@H](COCc1ccccc1)C(=O)N[C@H](C=[N+]([O-])Cc1ccccc1)Cc1ccccc1 [Compound 117] | –
15 | – | – | – | – | – | 47% | – | 94% | 0% | – | 11% | 0% | Cc1ccc(S(=O)(=O)O[C@H]2C[C@H](C(=O)N[C@H](C=O)Cc3ccccc3)N(S(=O)(=O)c3ccccc3)C2)cc1 [Compound 113] | –
16 | – | – | – | – | – | 99% | – | 100% | 0% | 9 nM | 95% | 0% | CC(C)(C)OC(=O)NCCCC[C@@H](C=O)NC(=O)[C@@H](COCc1ccccc1)NS(C)(=O)=O [Compound 93] | –
17 | – | – | – | – | – | 62% | – | 97% | 9% | 10 nM | 90% | 0% | Cc1ccc(S(=O)(=O)N2CC=C[C@@H]2C(=O)N[C@H](C=O)Cc2ccccc2)cc1 [Compound 130] (Tos-[dΔPro]-Phe-aldehyde) | –
18 | – | – | – | – | – | 50% | – | 65% | 0% | 14 nM | 87% | 12% | Cc1ccc(S(=O)(=O)N2CCC[C@@H]2C(=O)N[C@H](C=O)Cc2ccccc2)cc1 [Compound 120] (Tos-[dP]-Phe-aldehyde) | –
19 | – | – | – | – | – | 86% | – | 97% | 7% | 93 nM | 45% | 6% | C[C@@H](NS(=O)(=O)c1ccccc1)C(=O)N[C@H](C=O)Cc1ccccc1 [Compound 104] | –
20 | – | – | – | – | – | 98% | – | 100% | 0% | 11 nM | 91% | 4% | CS(=O)(=O)N[C@H](COCc1ccccc1)C(=O)N[C@@H](Cc1ccccc1)C(O)OCc1ccccc1 (stereo partly shown) [Compound 135] | –
21 | – | – | – | – | – | 100% | – | 100% | 0% | 4 nM | 100% | 0% | CS(=O)(=O)N[C@H](COCc1ccccc1)C(=O)N[C@H](C=O)CCCCNC(=O)OCc1ccccc1 [Compound 92] | –
22 | – | – | – | – | – | 78% | – | 100% | 0% | – | 63% | 0% | CS(=O)(=O)N[C@H](COCc1ccccc1)C(=O)N[C@@H](Cc1ccccc1)C1N(c2ccccc2)CCN1c1ccccc1 [Compound 132] | –

Source: patent publication US5852007A, “Cysteine and serine protease inhibitors containing D-amino acid at the P2 position, methods of making same, and methods of using same” (priority 1997, dated 1998)
